Experimental data: ChEMBL document CHEMBL1909046, “DrugMatrix in vitro pharmacology data”

Tests used:
[1] = target: Sigma non-opioid intracellular receptor 1 (Homo sapiens, UniProt Q99720); assay: DRUGMATRIX: Sigma1 radioligand binding (ligand: [3H] Haloperidol); assay type: cell membranes, Jurkat, Membrane; conditions: Not Active = under 50% inhibition at 10 µM
D(4) dopamine receptor = target: T1, D(4) dopamine receptor (Homo sapiens, UniProt P21917); assay: DRUGMATRIX: Dopamine D4.2 radioligand binding (ligand: [3H] Spiperone); assay type: cell membranes, CHO-K1, Membrane; conditions: cho-k1; Not Active = under 50% inhibition at 10 µM
T1 sequence (P21917 whole entry): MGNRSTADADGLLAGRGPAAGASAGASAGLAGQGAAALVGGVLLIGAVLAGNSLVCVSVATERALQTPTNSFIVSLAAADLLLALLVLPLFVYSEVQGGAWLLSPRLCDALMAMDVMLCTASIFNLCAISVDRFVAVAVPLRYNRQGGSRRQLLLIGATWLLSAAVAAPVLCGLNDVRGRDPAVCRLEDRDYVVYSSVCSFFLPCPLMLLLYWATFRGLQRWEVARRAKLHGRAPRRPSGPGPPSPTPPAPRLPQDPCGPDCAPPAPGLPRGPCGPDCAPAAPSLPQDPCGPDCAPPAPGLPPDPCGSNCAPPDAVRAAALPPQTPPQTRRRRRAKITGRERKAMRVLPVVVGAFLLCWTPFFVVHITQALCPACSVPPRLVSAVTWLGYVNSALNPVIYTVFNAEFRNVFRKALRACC

[2] = target: T2, Muscarinic acetylcholine receptor M5 (Homo sapiens, UniProt P08912); assay type: cell membranes, CHO-K1, Membrane; further: in other assays of this panel Not Active means under 50% inhibition at 10 µM
T2 sequence (P08912 whole entry): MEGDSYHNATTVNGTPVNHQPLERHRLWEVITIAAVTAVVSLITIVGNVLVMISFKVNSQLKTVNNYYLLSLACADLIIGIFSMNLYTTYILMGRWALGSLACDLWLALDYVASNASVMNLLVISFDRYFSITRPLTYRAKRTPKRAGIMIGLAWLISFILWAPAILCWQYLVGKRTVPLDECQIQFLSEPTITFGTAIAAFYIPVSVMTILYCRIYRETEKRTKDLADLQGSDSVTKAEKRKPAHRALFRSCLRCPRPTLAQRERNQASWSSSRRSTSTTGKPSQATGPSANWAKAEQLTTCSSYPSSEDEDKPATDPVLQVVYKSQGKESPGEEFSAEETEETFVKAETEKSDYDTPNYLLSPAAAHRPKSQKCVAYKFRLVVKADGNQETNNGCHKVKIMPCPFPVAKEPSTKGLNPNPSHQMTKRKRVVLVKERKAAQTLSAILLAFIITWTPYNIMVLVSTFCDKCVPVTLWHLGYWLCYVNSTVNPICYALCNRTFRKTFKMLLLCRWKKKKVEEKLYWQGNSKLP

[3] = target: Protein kinase C alpha type (Homo sapiens, UniProt P17252); assay type: cell-based; conditions: sf9;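 further: inhibition of PKCalpha kinase activity measured in an enzyme assay with histone as the phosphorylation substrate; in other assays of this panel Not Active means under 50% inhibition at 10 µM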
[4] = target: T3, Receptor-type tyrosine-protein phosphatase C (Homo sapiens, UniProt P08575); parameters: species or system Escherichia coli;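 further: inhibition of CD45 enzyme activity measured using DiFMUP as substrate; in other assays of this panel Not Active means under 50% inhibition at 10 µM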
T3 sequence (P08575 whole entry): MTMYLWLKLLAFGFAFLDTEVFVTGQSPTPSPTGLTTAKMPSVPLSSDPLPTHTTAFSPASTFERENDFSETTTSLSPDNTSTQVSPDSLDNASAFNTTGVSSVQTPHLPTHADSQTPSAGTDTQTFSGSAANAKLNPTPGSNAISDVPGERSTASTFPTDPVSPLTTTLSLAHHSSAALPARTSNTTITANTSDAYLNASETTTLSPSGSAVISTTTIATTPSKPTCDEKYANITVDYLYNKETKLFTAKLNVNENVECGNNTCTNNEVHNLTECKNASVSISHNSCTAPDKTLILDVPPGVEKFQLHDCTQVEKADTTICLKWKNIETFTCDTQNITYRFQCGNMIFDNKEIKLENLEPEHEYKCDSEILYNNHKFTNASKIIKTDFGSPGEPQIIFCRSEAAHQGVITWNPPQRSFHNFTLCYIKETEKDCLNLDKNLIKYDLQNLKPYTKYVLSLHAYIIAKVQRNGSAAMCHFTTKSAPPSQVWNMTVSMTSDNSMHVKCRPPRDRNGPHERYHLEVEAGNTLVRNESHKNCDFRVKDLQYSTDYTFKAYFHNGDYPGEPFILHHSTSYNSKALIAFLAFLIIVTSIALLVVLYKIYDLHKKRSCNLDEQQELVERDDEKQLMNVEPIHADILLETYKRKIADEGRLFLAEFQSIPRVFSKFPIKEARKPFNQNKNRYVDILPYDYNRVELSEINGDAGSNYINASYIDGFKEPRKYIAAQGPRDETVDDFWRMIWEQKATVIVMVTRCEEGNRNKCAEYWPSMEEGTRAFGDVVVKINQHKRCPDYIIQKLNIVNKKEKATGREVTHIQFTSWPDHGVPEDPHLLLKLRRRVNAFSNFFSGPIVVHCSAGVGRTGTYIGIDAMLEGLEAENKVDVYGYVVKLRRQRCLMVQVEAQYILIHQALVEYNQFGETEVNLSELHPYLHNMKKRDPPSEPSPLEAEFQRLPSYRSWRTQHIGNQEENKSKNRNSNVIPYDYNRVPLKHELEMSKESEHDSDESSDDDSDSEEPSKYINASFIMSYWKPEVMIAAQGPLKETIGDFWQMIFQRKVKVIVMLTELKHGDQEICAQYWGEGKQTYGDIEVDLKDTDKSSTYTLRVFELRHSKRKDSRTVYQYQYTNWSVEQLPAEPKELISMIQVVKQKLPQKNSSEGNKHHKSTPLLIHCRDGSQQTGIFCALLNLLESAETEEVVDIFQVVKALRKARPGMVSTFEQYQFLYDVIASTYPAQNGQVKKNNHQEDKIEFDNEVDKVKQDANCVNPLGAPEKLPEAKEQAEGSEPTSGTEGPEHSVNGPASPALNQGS

Sigma non-opioid intracellular receptor 1, sequence (Q99720 whole entry): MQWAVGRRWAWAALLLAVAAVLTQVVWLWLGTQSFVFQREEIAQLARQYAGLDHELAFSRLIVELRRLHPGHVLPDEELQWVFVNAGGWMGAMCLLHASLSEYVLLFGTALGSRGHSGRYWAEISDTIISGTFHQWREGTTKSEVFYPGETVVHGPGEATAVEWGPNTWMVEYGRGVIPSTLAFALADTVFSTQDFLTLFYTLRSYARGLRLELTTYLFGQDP

Row | Molecule | IC50 ([1]; read-out: IC50) [nM] | Ki ([1]; read-out: Ki) [nM] | IC50 (D(4) dopamine receptor) | IC50 ([2]; read-out: IC50) [nM] | Ki ([2]; read-out: Ki) [nM] | IC50 [3] | IC50 [4] | IC50 ([1]; jurkat) | IC50 ([2]; cho-k1) | Ki ([1]; jurkat) | Ki (D(4) dopamine receptor) | Ki ([2]; cho-k1) | Ki [3] | Ki [4]
1 | C1CCC(C(CC2CCCCN2)C2CCCCC2)CC1 (centres undefined) [PERHEXILINE] | 2600 | 1090 | Not Active | 1090 | 785 | Not Active | Not Active |  |  |  |  |  |  | 
2 | CCOc1ccc(NC(C)=O)cc1 [PHENACETIN] |  |  | Not Active |  |  | Not Active | Not Active | Not Active | Not Active |  |  |  |  | 
3 | Cc1ccc(N(CC2=NCCN2)c2cccc(O)c2)cc1 [PHENTOLAMINE] |  |  | Not Active |  |  | Not Active | Not Active | Not Active | Not Active |  |  |  |  | 
4 | CNNCc1ccc(C(=O)NC(C)C)cc1 [PROCARBAZINE] |  |  | Not Active |  |  | Not Active | Not Active | Not Active | Not Active |  |  |  |  | 
5 | CN(C)CCCN1c2ccccc2Sc2ccccc21 [PROMAZINE] | 271 | 114 | Not Active | 64 | 46 | Not Active | Not Active |  |  |  |  |  |  | 
6 | CC(O)CO (centres undefined) [PROPYLENE GLYCOL] |  |  | Not Active |  |  | Not Active | Not Active | Not Active | Not Active |  |  |  |  | 
7 | CADMIUM ACETATE |  |  | Not Active |  |  | Not Active | Not Active | Not Active | Not Active | Not Active | Not Active | Not Active | Not Active | Not Active
8 | LEAD (II) ACETATE |  |  | Not Active |  |  | Not Active | Not Active | Not Active | Not Active | Not Active | Not Active | Not Active | Not Active | Not Active
9 | LIPOPOLYSACCHARIDE E. COLI O55:B5 |  |  | Not Active |  |  | Not Active | Not Active | Not Active | Not Active | Not Active | Not Active | Not Active | Not Active | Not Active
